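Exposure lasted 48 hours, with cells grown in 96-well plates and compounds tested at five concentrations. At the TGI there is no net growth.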
Legend:
Experiment in all cases: DTP human tumour cell line panel, 48 h
SK-MEL-5 melanoma = test system: SK-MEL-5 melanoma
HCT-116 colon = test system: HCT-116 colon
OVCAR-3 ovarian = test system: OVCAR-3 ovarian
NCI-H226 lung = test system: NCI-H226 lung
DU-145 prostate = test system: DU-145 prostate
UACC-257 melanoma = test system: UACC-257 melanoma
SK-OV-3 ovarian = test system: SK-OV-3 ovarian
PC-3 prostate = test system: PC-3 prostate
NCI-H460 lung = test system: NCI-H460 lung
K-562 leukemia = test system: K-562 leukemia
HCC-2998 colon = test system: HCC-2998 colon
786-0 renal = test system: 786-0 renal
HT29 colon = test system: HT29 colon
CAKI-1 renal = test system: CAKI-1 renal
EKVX NSCLC = test system: EKVX NSCLC
U251 CNS = test system: U251 CNS
MDA-MB-231 breast = test system: MDA-MB-231 breast
SW-620 colon = test system: SW-620 colon
CCRF-CEM leukemia = test system: CCRF-CEM leukemia
SR leukemia = test system: SR leukemia
ACHN renal = test system: ACHN renal
T-47D breast = test system: T-47D breast
UO-31 renal = test system: UO-31 renal
LOX IMVI melanoma = test system: LOX IMVI melanoma
SK-MEL-2 melanoma = test system: SK-MEL-2 melanoma
RXF 393 renal = test system: RXF 393 renal
MDA-N = test system: MDA-N
KM12 colon = test system: KM12 colon
SF-268 CNS = test system: SF-268 CNS
MCF7 breast = test system: MCF7 breast
MOLT-4 leukemia = test system: MOLT-4 leukemia
HOP-62 NSCLC = test system: HOP-62 NSCLC
OVCAR-5 ovarian = test system: OVCAR-5 ovarian
OVCAR-8 ovarian = test system: OVCAR-8 ovarian
TK-10 renal = test system: TK-10 renal
HCT-15 colon = test system: HCT-15 colon
IGROV1 ovarian = test system: IGROV1 ovarian
SF-539 CNS = test system: SF-539 CNS
SF-295 CNS = test system: SF-295 CNS
OVCAR-4 ovarian = test system: OVCAR-4 ovarian
HOP-92 NSCLC = test system: HOP-92 NSCLC
A498 renal = test system: A498 renal
MDA-MB-435 = test system: MDA-MB-435
HS 578T breast = test system: HS 578T breast
NCI-H522 lung = test system: NCI-H522 lung
SK-MEL-28 melanoma = test system: SK-MEL-28 melanoma
NCI/ADR-RES ovarian = test system: NCI/ADR-RES ovarian
UACC-62 melanoma = test system: UACC-62 melanoma
SN12C renal = test system: SN12C renal
M14 melanoma = test system: M14 melanoma
COLO 205 colon = test system: COLO 205 colon
SNB-19 CNS = test system: SNB-19 CNS
A549 NSCLC = test system: A549 NSCLC
HL-60(TB) leukemia = test system: HL-60(TB) leukemia
RPMI-8226 leukemia = test system: RPMI-8226 leukemia
NCI-H23 lung = test system: NCI-H23 lung
SNB-75 CNS = test system: SNB-75 CNS

`CN1CCN(Cn2nc(COc3ccc(Cl)cc3)n(/N=C/c3ccc(-c4ccc(Cl)cc4Cl)o3)c2=S)CC1` was tested, and the TGI (SK-MEL-5 melanoma) was 35.5 µM, the TGI (HCT-116 colon) was 26.2 µM and the TGI (OVCAR-3 ovarian) was 30.6 µM. It also gave a TGI (NCI-H226 lung) of 49.2 µM, a TGI (DU-145 prostate) of 25 µM and a TGI (UACC-257 melanoma) of 36.7 µM. For the same compound, the TGI (SK-OV-3 ovarian) was 30.2 µM, the TGI (PC-3 prostate) was 23.5 µM and the TGI (NCI-H460 lung) was 34.3 µM. It also gave a TGI (K-562 leukemia) greater than 100 µM, a TGI (HCC-2998 colon) of 7.72 µM and a TGI (786-0 renal) of 17 µM. The TGI (HT29 colon) was 15.4 µM, the TGI (CAKI-1 renal) was 28.3 µM and the TGI (EKVX NSCLC) was 37.7 µM. For the same compound, the TGI (U251 CNS) was 23.1 µM, the TGI (MDA-MB-231 breast) was 22 µM and the TGI (SW-620 colon) was 19 µM. The TGI (CCRF-CEM leukemia) was 17.3 µM, the TGI (SR leukemia) was 14.8 µM and the TGI (ACHN renal) was 33.9 µM. It also gave a TGI (T-47D breast) of 46.3 µM, a TGI (UO-31 renal) of 32.6 µM and a TGI (LOX IMVI melanoma) of 24.1 µM. The TGI (SK-MEL-2 melanoma) was 41 µM, the TGI (RXF 393 renal) was 7.13 µM and the TGI (MDA-N) was 14.1 µM. For the same compound, the TGI (KM12 colon) was 11 µM, the TGI (SF-268 CNS) was 21.3 µM and the TGI (MCF7 breast) was 36.7 µM. For the same compound, the TGI (MOLT-4 leukemia) was 41.1 µM, the TGI (HOP-62 NSCLC) was 16.8 µM and the TGI (OVCAR-5 ovarian) was 33.2 µM. The TGI (OVCAR-8 ovarian) was 18.7 µM, the TGI (TK-10 renal) was 30.6 µM and the TGI (HCT-15 colon) was 36.9 µM. It also gave a TGI (IGROV1 ovarian) of 24 µM, a TGI (SF-539 CNS) of 72.3 µM and a TGI (SF-295 CNS) of 27.8 µM. For the same compound, the TGI (OVCAR-4 ovarian) was 10.5 µM, the TGI (HOP-92 NSCLC) was 22.7 µM and the TGI (A498 renal) was 32.6 µM. It also gave a TGI (MDA-MB-435) of 8.02 µM, a TGI (HS 578T breast) of 23.8 µM and a TGI (NCI-H522 lung) of 10.2 µM. It also gave a TGI (SK-MEL-28 melanoma) of 28.2 µM and a TGI (NCI/ADR-RES ovarian) of 38.9 µM.

Work on `CN1N=C(c2ccncc2)OC1c1ccc(Cl)cc1Cl` (centres undefined) yielded a TGI (SK-MEL-5 melanoma) greater than 100 µM, a TGI (HCT-116 colon) greater than 100 µM and a TGI (OVCAR-3 ovarian) greater than 100 µM. For the same compound, the TGI (NCI-H226 lung) was 84.2 µM, the TGI (DU-145 prostate) was greater than 100 µM and the TGI (UACC-257 melanoma) was greater than 100 µM. It also gave a TGI (SK-OV-3 ovarian) greater than 100 µM, a TGI (UACC-62 melanoma) of 76.5 µM and a TGI (SN12C renal) greater than 100 µM. It also gave a TGI (PC-3 prostate) greater than 100 µM, a TGI (NCI-H460 lung) greater than 100 µM and a TGI (K-562 leukemia) greater than 100 µM. It also gave a TGI (HCC-2998 colon) greater than 100 µM, a TGI (786-0 renal) greater than 100 µM and a TGI (M14 melanoma) greater than 100 µM. The TGI (HT29 colon) was greater than 100 µM, the TGI (EKVX NSCLC) was greater than 100 µM and the TGI (U251 CNS) was greater than 100 µM. For the same compound, the TGI (MDA-MB-231 breast) was greater than 100 µM, the TGI (SW-620 colon) was greater than 100 µM and the TGI (CCRF-CEM leukemia) was greater than 100 µM. The TGI (ACHN renal) was greater than 100 µM, the TGI (COLO 205 colon) was greater than 100 µM and the TGI (SNB-19 CNS) was greater than 100 µM. For the same compound, the TGI (T-47D breast) was greater than 100 µM, the TGI (UO-31 renal) was greater than 100 µM and the TGI (A549 NSCLC) was greater than 100 µM. It also gave a TGI (LOX IMVI melanoma) greater than 100 µM, a TGI (HL-60(TB) leukemia) greater than 100 µM and a TGI (SK-MEL-2 melanoma) greater than 100 µM. For the same compound, the TGI (RXF 393 renal) was greater than 100 µM, the TGI (MDA-N) was greater than 100 µM and the TGI (KM12 colon) was greater than 100 µM. It also gave a TGI (RPMI-8226 leukemia) greater than 100 µM, a TGI (SF-268 CNS) greater than 100 µM and a TGI (MCF7 breast) greater than 100 µM. For the same compound, the TGI (MOLT-4 leukemia) was greater than 100 µM, the TGI (HOP-62 NSCLC) was greater than 100 µM and the TGI (NCI-H23 lung) was greater than 100 µM. The TGI (OVCAR-5 ovarian) was greater than 100 µM, the TGI (OVCAR-8 ovarian) was greater than 100 µM and the TGI (TK-10 renal) was greater than 100 µM. For the same compound, the TGI (HCT-15 colon) was greater than 100 µM, the TGI (IGROV1 ovarian) was greater than 100 µM and the TGI (SF-539 CNS) was greater than 100 µM. For the same compound, the TGI (SF-295 CNS) was greater than 100 µM, the TGI (OVCAR-4 ovarian) was greater than 100 µM and the TGI (SNB-75 CNS) was 55.6 µM. The TGI (A498 renal) was greater than 100 µM, the TGI (MDA-MB-435) was greater than 100 µM and the TGI (HS 578T breast) was greater than 100 µM. The TGI (NCI-H522 lung) was greater than 100 µM, the TGI (SK-MEL-28 melanoma) was greater than 100 µM and the TGI (NCI/ADR-RES ovarian) was greater than 100 µM.

`Cc1ccc(S(=O)(=O)N2CCCN(S(=O)(=O)c3ccc(C)cc3)CC2)cc1` was tested, and the TGI (SK-MEL-5 melanoma) was greater than 100 µM, the TGI (HCT-116 colon) was greater than 100 µM and the TGI (OVCAR-3 ovarian) was greater than 100 µM. For the same compound, the TGI (NCI-H226 lung) was greater than 100 µM, the TGI (DU-145 prostate) was greater than 100 µM and the TGI (UACC-257 melanoma) was greater than 100 µM. The TGI (SN12C renal) was greater than 100 µM, the TGI (PC-3 prostate) was greater than 100 µM and the TGI (NCI-H460 lung) was greater than 100 µM. The TGI (K-562 leukemia) was greater than 100 µM, the TGI (HCC-2998 colon) was greater than 100 µM and the TGI (M14 melanoma) was greater than 100 µM. It also gave a TGI (HT29 colon) greater than 100 µM, a TGI (U251 CNS) greater than 100 µM and a TGI (MDA-MB-231 breast) greater than 100 µM. The TGI (SW-620 colon) was greater than 100 µM, the TGI (CCRF-CEM leukemia) was greater than 100 µM and the TGI (SR leukemia) was greater than 100 µM. It also gave a TGI (ACHN renal) greater than 100 µM, a TGI (COLO 205 colon) greater than 100 µM and a TGI (SNB-19 CNS) greater than 100 µM. For the same compound, the TGI (T-47D breast) was greater than 100 µM, the TGI (UO-31 renal) was greater than 100 µM and the TGI (RXF 393 renal) was greater than 100 µM. For the same compound, the TGI (MDA-N) was greater than 100 µM, the TGI (KM12 colon) was greater than 100 µM and the TGI (SF-268 CNS) was greater than 100 µM. It also gave a TGI (MCF7 breast) greater than 100 µM, a TGI (MOLT-4 leukemia) greater than 100 µM and a TGI (NCI-H23 lung) greater than 100 µM. The TGI (OVCAR-8 ovarian) was greater than 100 µM, the TGI (TK-10 renal) was greater than 100 µM and the TGI (HCT-15 colon) was greater than 100 µM. For the same compound, the TGI (SF-295 CNS) was greater than 100 µM, the TGI (OVCAR-4 ovarian) was greater than 100 µM and the TGI (HOP-92 NSCLC) was greater than 100 µM. It also gave a TGI (SNB-75 CNS) greater than 100 µM, a TGI (A498 renal) of 69.2 µM and a TGI (MDA-MB-435) greater than 100 µM. It also gave a TGI (HS 578T breast) greater than 100 µM, a TGI (NCI-H522 lung) greater than 100 µM and a TGI (SK-MEL-28 melanoma) greater than 100 µM. The TGI (NCI/ADR-RES ovarian) was greater than 100 µM.
